What was measured:
burn models = test: Burn test; format: in vivo, Wistar rats; settings: local application of solid powder, after 3 days, 10 rats per group (control: 2)
Excerpt: 20 Wistar rats were randomly divided into two groups, i.e., control group and test group. The rats of both two groups were made as burn models by dressing gauze with hot distilled water. The rats of the control group were not treated, while the rats of the test group were locally treated by applying a solid powder of the compound of formula (I). After 3 days, 8 rats of the test group formed scab, while only 2 rats of the control group formed scab wherein liquor puris still accumulated below the scab.

[1] = tested on: blunt torn thigh muscle tissue of hind limb; test: Blunt tearing tests of animals; format: in vivo, Kunming mice; settings: 1 ml, after 7 days
Experimental: 30 Kunming mice were randomly divided into two groups, i.e., 10 mice in control group and 20 mice in test group. The mice of both two groups were treated by a blunt tearing method, wherein a non-specific injury occurred in blunt torn thigh muscle tissue of hind limb of mice. […] 10 mice of control group were normally fed, while the mice of test group were administered with an aqueous solution of N-acetyl-D-glucosamine having a concentration of 5% by weight in a dosage of 1 ml, wherein 10 mice were administered by intra-peritoneal injection, another 10 mice were administered by intramuscular injection. […] The pathological changes of the mice of control group continuously developed or maintained on the original basis, wherein 4 mice suffered paralysis of the injured limb, and another 4 mice had flex and stretch dysfunction.

[2] = tested on: burned voluntary patients; test: Test for treatment of burn; format: in vivo; settings: sterilized powder on wound surface for 3 consecutive days, 10 patients
Excerpt: In a collaborate project of the bum department of Third Military Medical University, a sterilized N-acetyl-D-glucosamine powder in a dose dependant upon wound surface area was applied to the wound surface of 10 burned voluntary patients for consecutive 3 days.

[3] = tested on: patients with surgical trauma; test: Test for treatment of surgical trauma; format: in vivo; settings: ointment 1 g/10 g in Vaseline, painted on wounds for 3 consecutive days, 8 patients
Experimental: 8 Patients with surgical trauma, and most of them were facial and forearm abrasion. An ointment with a concentration of 1 g/10 g was prepared by mixing N-acetyl-D-glucosamine and Vaseline, and was painted on wounded parts in a dose dependent upon the area of wound surface for consecutive 3 days.

[4] = tested on: patients with cold injury; test: Test for treatment of cold injury; format: in vivo; settings: 10 wt % aqueous solution, local, 1 ml to 10 ml per day
Experimental: 20 Patients with different levels of cold injury were divided into a test group and a control group. The patients in the test group were locally treated with a 10 wt % N-acetyl-D-glucosamine aqueous solution in a dose from 1 ml to 10 ml per day according to symptoms and individual conditions.

Proteus Mirabilis = test: Promoting wave test (bio-wave model); format: cell-based; settings: final concentration 0.5% in LB plate, 37° C., 9 hours
[5] = in vivo
Excerpt: The toxicological test of the compound of formula (I) includes: • 1. Acute toxicity test: including tests of oral administration, intravenous injection administration, and maximum limit amount for administration; • 2. Ames test; • 3. Micronucleus test of mouse bone marrow cell; • 4. Abnormality test of mouse sperm; • 5. Aberration test of mouse testis chromosome; • 6. Chronic lethal test; • 7. Sub-chronic toxicity (feed for 90 days) test; • 8. Traditional deformity-inducing test.

[6] = 5% aqueous solution, i.p. or i.m., 20 mice in test group (control: 4 of 10)

CC(=O)N[C@H]1C(O)O[C@H](CO)[C@@H](O)[C@@H]1O.Cl (stereo partly drawn) [N-acetyl-D-glucosamine hydrochloride]
rats of the test group that formed scab (burn models): 6

CC(=O)N[C@H]1C(O)O[C@H](CO)[C@@H](O)[C@@H]1O.O=S(=O)(O)O (stereo partly drawn) [N-acetyl-D-glucosamine sulfate]
mice that suffered paralysis of the injured limb [1, 6]: 2
mice with flex and stretch dysfunction [1, 6]: 2

CC(=O)N[C@H]1C(O)O[C@H](CO)[C@@H](O)[C@@H]1O (stereo partly drawn) [compound of formula (I), N-acetyl-D-glucosamine]
wound symptoms (edema, blood vessels, secretion) [2]: edema was alleviated, blood vessel shrank, and secretion was reduced
rate of cambium growth toward the center of the wound ([2]; from the 4th day): 1-2 mm per day
rats of the test group that formed scab (burn models): 8
healing of facial abrasion [3]: rapidly healed
scar formation [3]: no scar was found on face
mice that suffered paralysis of the injured limb [1, 6]: one
movement of injured limb / mobility of test group ([1]; 5% by weight aqueous solution, intra-peritoneal or intramuscular injection, 20 mice): could free-run
recovery from cold injury [4]: early recovery, and then inflammation and edema were eliminated
bio-wave pattern of colony (concentric rings) (Proteus Mirabilis): many fine waves on each ring
dosage at which acute toxicosis reaction had not appeared [5]: more than 2 g/kg

Source: US20070178161A1, “Use of n-acetryl-d-glucosamine in treating and controlling non-specific inflammations caused by physical or chemical factors” (priority 2003, published 2007)
